Measured values published in paper PMC8635108, “Identification of Novel Type Three Secretion System (T3SS) Inhibitors by Computational Methods and Anti-Salmonella Evaluations” (Frontiers in Pharmacology, 2021).
In brackets after ≈: the same amount, converted by molar mass.

What was measured:
Assay type in all cases: cell-based
[1] = test system: S. typhimurium in RAW 264.7 cells; assay: Intracellular killing assay; details: 1 h, vs non-treated S. typhimurium group
Description: The intracellular killing experiment was performed according to the previous reported protocol ([Birhanu et al., 2018]). RAW 264.7 cells (10^5 cells/ml) were cultured in 24-well plates, and then treated with S. Typhimurium (10^7 CFU/ml) and further incubated for 45 min. After the cells were washed, the compound 5 (8 μg/ml), […] (19 μg/ml) and 32 (34 μg/ml) or gatifloxacin (3 μg/ml) were respectively added and incubated for 1 h at 37 °C. Finally, cells were treated with gentamicin (100 μg/ml) for 1 h and lysed with 0.1% of trition × 100 before being serially diluted and plated on LB agar. The cells infected with S. Typhimurium without treatment was used as the control.

[2] = In vitro cytotoxicity assay (MTT); details: mouse, RAW 264.7 cells, read-out: cell viability
Description: To study the cytotoxic effects of compounds on cell viability, the RAW 264.7 cells were seeded into 96-well plates at 1 ×10^4 cells/well and allowed to attach for 24 h. The medium was replaced with 100 μL medium containing the indicated concentrations of compounds and further incubated for 24 h. Each well was added 10 μL MTT (5 mg/ml in PBS) and the plates were incubated for 4 h at 37°C. Supernatants were aspirated and formed formazan was dissolved in 100 μL of dimethyl sulfoxide (DMSO). The optical density (OD) was measured at an absorbance wavelength of 490 nm using a Microplate Reader (Tecan, Switzerland).

[3] = test system: S. typhimurium invasion of human epithelial cell line (Henle 407); assay: Salmonella invasion assay; details: Henle 407 cells, triplicate
Description: The effect of T3SS inhibitor candidates on the ability of S. typhimurium to invade a cultured human epithelial cell line (Henle 407) was performed in a method similar to one previously described ([Chatterjee et al., 2011]). Henle 407 cells were grown in DMEM with 10% fetal calf serum at 37°C in 5% CO2 in 24-well plates. The plasmid pRK2-SipD with WT SipD was electroporated into the S. typhimurium SipD ^− strain and single colonies were inoculated into LB media supplemented with 25 mg/L trimethoprim, 50 mg/L ampicillin, 50 mg/L kanamycin and grown in standing cultures overnight. A 10 ml LB culture with 1 mM IPTG was inoculated with 1 ml of overnight bacterial growth, and incubated at 37°C on standing for 2.5–3 h. Approximately 15–30 uL of bacterial suspension was added with 300 uL DMEM into the Henle 407 cells and incubated at 37°C for 60 min to allow invasion before the suspension was removed by aspiration. The Henle 407 cells were incubated with fresh DMEM with 100 mg/L of gentamycin for 1.5 h, aspirated, rinsed with DMEM, and lysed with 1% Triton X-100 to free the entrapped bacteria. The number of bacterial colonies, which correlated with invasiveness, was estimated by serial dilution and plating. The Salmonella invasion assay was done in triplicate.

S. typhimurium = assay: In vitro anti-Salmonella bioassay (MIC); details: Salmonella enterica, 37°C 24 h, mean ± SD, three times
Description: (§1) The anti-Salmonella activities of these compounds were performed according to the previous reported protocol ([Wei et al., 2016]), using the minimum inhibitory concentration (MIC) with different strains, including S. enteritidis, S. typhi, S. typhimurium, S. paratyphi, S. and abortus equi. Gatifloxacin was used as positive controls. The test compounds 5, 19, and 32 in DMSO were prepared and then poured into 96-well plates. The final concentration of o.39–100 μg/ml underwent a twofold serial dilution. The bacteria were incubated with a series of different concentrations of compounds at 37°C for 24 h. The microbacterial growth was measured at the absorption of 630 nm. All experiments were carried out in triplicate.

S. typhi = assay: In vitro anti-Salmonella bioassay (MIC); details: Salmonella enterica, 37°C 24 h, mean ± SD, three times
Description: as §1

S. abortus equi = assay: In vitro anti-Salmonella bioassay (MIC); details: Salmonella enterica, 37°C 24 h, mean ± SD, three times
Description: as §1

S. enteritidis = assay: In vitro anti-Salmonella bioassay (MIC); details: Salmonella enterica, 37°C 24 h, mean ± SD, three times
Description: as §1

S. paratyphi = assay: In vitro anti-Salmonella bioassay (MIC); details: Salmonella enterica, 24 h
Description: as §1

Row | SMILES | decrease of intracellular survival of S. typhimurium ([1]; 8 μg/ml) [%] | viability at 24 h, 8 μg/ml ([2]; 8 μg/ml) [%] | effect on invasiveness [3] | MIC (S. typhimurium) [µg/mL] | MIC (S. typhi) [µg/mL] | MIC (S. abortus equi) [µg/mL] | MIC (S. enteritidis) [µg/mL] | MIC (S. paratyphi) [µg/mL] | decrease of intracellular survival of S. typhimurium ([1]; 19 μg/ml) [%] | viability at 24 h, 19 μg/ml ([2]; 19 μg/ml) [%] | decrease of intracellular survival of S. typhimurium ([1]; 34 μg/ml) [%] | viability at 24 h, 34 μg/ml ([2]; 34 μg/ml) [%] | intracellular survival suppression of S. typhimurium ([1]; 3 μg/ml) [%]
1 | O=C(O)c1ccc(Cn2nnc3sc4c(c3c2=O)CCCC4)cc1 [Compound 5] | 44.4 | 84.2 ± 5.45 | most drastic effect on the invasiveness | 8 ± 2 (≈ 23.4 µM) | 12.3 ± 2.1 (≈ 36 µM) | 5 ± 1 (≈ 14.6 µM) | 31.6 ± 3.6 (≈ 92.6 µM) | 24.3 ± 3.5 (≈ 71.2 µM) |  |  |  |  | 
2 | Nc1c(S(=O)(=O)O)ccc2c1C(=O)c1ccccc1C2=O [Compound 19] |  |  | most drastic effect on the invasiveness | 19.1 ± 3.1 (≈ 63 µM) | 31.6 ± 5 (≈ 104 µM) | 3 ± 1 (≈ 9.89 µM) | 53.3 ± 4.9 (≈ 176 µM) | 16.3 ± 3.1 (≈ 53.7 µM) | 32.5 | 91.5 ± 7.09 |  |  | 
3 | Nc1c(-c2ccc(Cl)cc2)cnn1-c1ccc(C(=O)O)cc1 [Compound 32] |  |  | most drastic effect on the invasiveness | 34.3 ± 3.8 (≈ 109 µM) | 44 ± 4.6 (≈ 140 µM) | 1.2 ± 0.3 (≈ 3.82 µM) | 22 ± 3 (≈ 70.1 µM) | 22 ± 2.6 (≈ 70.1 µM) |  |  | 52.2 | 86.4 ± 6.04 | 
4 | COc1c(N2CCNC(C)C2)c(F)cc2c(=O)c(C(=O)O)cn(C3CC3)c12 (stereo not drawn) [Gatifloxacin, reference compound] |  |  |  | 3.3 ± 1.2 (≈ 8.79 µM) | 9.7 ± 2.5 (≈ 25.8 µM) | 2 ± 1 (≈ 5.33 µM) | 7.7 ± 1.5 (≈ 20.5 µM) | 3 ± 1.7 (≈ 7.99 µM) |  |  |  |  | 60.2
